The test system of one experiment is keratin 10. Nature of the experiment: Recovery of keratin 10 marker gene expression in fine dust-treated keratinocytes (quantitative real-time PCR). Type of experiment: cell-based. Particulars: Human neonatal epidermal keratinocytes; 100 ppm fine dust 24 hours, then 50 ppm araloside for 5 days; FIG. 1; compared to fine dust only and untreated group. On the procedure: (§1) Human neonatal epidermal keratinocytes (HEK; Lonza, NHEK-Neo-Neonatal Normal. Human Epidermal Keratinocytes, Pooled) were dispensed in medium (KBM-gold, Lonza) in a 6-well plate at a density of 1×10^5 cells per well and cultured at 37° C. for 24 hours. 100 ppm of fine dust was treated in the well and subjected to stimulation for 24 hours, which was then treated with medium (KBM-gold, Lonza) containing 50 ppm each of […] and araloside X and incubated at 37° C. for 5 days. Then, RNA was extracted from the HEK cells incubated for 5 days using an RNeasy mini kit (Qiagen), and then a cDNA was synthesized through an RT-PCR process using a Superscript III kit (Invitrogen). To confirm the expression level of keratin 1 and keratin 10 genes, a probe (TaqMan™ fluorogenic probe, Hs00196158_m1, Hs00166289_m1) was used to conduct the quantitative real-time PCR process and observe the expression behavior of keratin 1 and keratin. 10. The control group used an untreated group not treated with fine dust and also not treated with araloside V, araloside VII and araloside X; and fine dust-treated group treated with fine dust but not, treated with araloside V, araloside VII and araloside X.

The subject of a further experiment is IL1B. Nature of the experiment: IL1B protein production in fine dust-stimulated human fibroblasts (ELISA). Type of experiment: cell-based. Particulars: 100 ppm fine dust 24 hours, then sample 50 ppm for 48 hours, culture solution ELISA, fine dust only = 311. On the procedure:
(§2) Human fibroblasts (PromoCell, Germany) were inoculated in a 6-well plate at a concentration of 1×10^5 cells, and cultured in an incubator (37° C., 5% CO2) for 24 hours. 100 ppm of fine dust was treated in the well and subjected to stimulation for 24 hours, which was then treated with medium containing 50 ppm each of araloside V, araloside VII and araloside X and allowed to react for 48 hours. After completion of the reaction, the culture solution was collected and subjected to ELISA analysis. At this time, α-bisabolol, a substance frequently used as an anti-inflammatory and irritation-mitigating agent, was used as a control group. Measurement of the production amount of IL8 and IL1B proteins was carried out using a ThermoFisher's kit, and experiments were conducted according to the method described in the company's manual.

Experiment [1] relates to Reactive Oxygen Species (ROS). Nature of the experiment: Inhibitory effect on reactive oxygen species (ROS) production in fine dust-stimulated keratinocytes (DCF-DA fluorescence). The experiment is classed as cell-based. Particulars: human keratinocytes; sample 50 ppm for 2 hours, then treated with 100 ppm of fine dust; vehicle control = 100, fine dust only = 384. As for the experimental part: 5×10^4 Keratinocytes isolated from human epidermal tissue were added to each well of a 24-well plate and allowed to adhere for 24 hours. Then, […] and araloside X were treated at 50 ppm, respectively. At this time, for comparison, a control group (untreated group) was not treated with araloside V, araloside VII and araloside X, and a positive control group was treated with a known antioxidant ascorbic acid. After 2 hours, the culture solution was removed, and then 100 μl of phosphate buffered saline (PBS) containing 100 ppm of fine dust was added to each well. Then, the amount of active oxygen species increased by fine dust stimulation was quantified. The amount of ROS was quantified with reference to Tan's method of measuring the fluorescence of DCF-DA (dichlorofluorescin diacetate) oxidized by ROS (Tan et al., 1998, J. Cell Biol. Vol. 141, pp 1423-1432).

The next experiment has as its system IL8. Briefly: IL8 protein production in fine dust-stimulated human fibroblasts (ELISA). Particulars: 100 ppm fine dust 24 hours, then sample 50 ppm for 48 hours, culture solution ELISA, fine dust only = 246. Type of experiment: cell-based. As for the experimental part:
as §2

The next experiment deals with MMP-1. Briefly: MMP-1 inhibitory effect in fine dust- and UVB-treated Hs68 fibroblasts (MMP-1 assay kit). Particulars: 100 ppm fine dust 24 hours, UVB 30 mJ/M^2, then 50 ppm araloside for 48 hours, FIG. 2, compared to fine dust only and untreated group. The experiment is classed as cell-based, Human. On the procedure: Human neonatal fibroblast HS68 was purchased from Cascade Biologics (Invitrogen, USA) and used. Hs68 was cultured using DMEM medium supplemented with 10% FBS (fetal bovine serum), 50 U/ml of penacillin and 50 μg/ml of streptomycin. Cells were cultured under the conditions of 37° C., 5% CO2. The Hs68 was added to a 12-well plate at a concentration of 7.5×10^4 cells/well and cultured overnight. On the next day, the medium was replaced with FBS-free medium having a fine dust concentration of 100 ppm and cultured for 24 hours. After irradiating with UVB 30 mJ/M^2, the araloside V, araloside VII, and araloside X were treated at a concentration of 50 ppm for 48 hours, respectively. After culture, the medium was collected and the production amount of MMP-1 was measured using an MMP-1 assay kit (GE healthcare). The control group used an untreated group not treated with fine dust and also not treated with araloside V, araloside VII and araloside X; and a fine dust-treated group treated with fine dust but not treated with araloside V, araloside VII and araloside X.

The subject of the next experiment is keratin 1. Briefly: Recovery of keratin 1 marker gene expression in fine dust-treated keratinocytes (quantitative real-time PCR). The experiment is classed as cell-based. Particulars: Human neonatal epidermal keratinocytes; 100 ppm fine dust 24 hours, then 50 ppm araloside for 5 days; FIG. 1; compared to fine dust only and untreated group. As for the experimental part:
as §1

The values that follow come from patent US11052098B2, “Composition containing araloside for external application to skin” (Amorepacific Corporation, priority 2015, dated 2021).

As to `CC1(C)CC[C@]2(C(=O)O[C@@H]3O[C@H](CO)[C@@H](O)[C@H](O)[C@H]3O)CC[C@]3(C)C(=CC[C@@H]4[C@@]5(C)CC[C@H](O[C@@H]6O[C@H](CO)[C@@H](O)[C@H](O[C@@H]7O[C@H](CO)[C@@H](O)[C@H](O)[C@H]7O)[C@H]6O[C@@H]6O[C@H](CO)[C@@H](O)[C@H](O)[C@H]6O)[C@@](C)(CO)[C@@H]5CC[C@]43C)[C@@H]2C1` [araloside VII], the “expression of keratin 10 gene” value in the experiment with keratin 10 is “a level equal to or higher than that in the untreated group”. Besides, the “IL1B (production amount of protein)” value in the experiment on IL1B was 256 pg/mL. For the same compound, the “amount of ROS, ratio to control group treated with only vehicle (=100)” value (shortened to “amount of ROS, ratio”) in experiment [1] is reported as 105. Also, in the experiment on IL8, the “IL8 (production amount of protein)” value was 184 pg/mL. Also, the “MMP-1 activity (production amount of MMP-1)” value (shortened to “MMP-1 activity”) in the experiment on MMP-1 is “to about the level of MMP-1 activity in the untreated (control) group”. For the same compound, the “expression of keratin 1 gene” value with keratin 1 is “a level equal to or higher than that in the untreated group”.
Turning to `CC1(C)CC[C@]2(C(=O)O[C@@H]3O[C@H](CO)[C@@H](O)[C@H](O)[C@H]3O)CC[C@]3(C)C(=CC[C@@H]4[C@@]5(C)CC[C@H](O[C@H]6O[C@H](CO)[C@@H](O)[C@@H](O[C@@H]7O[C@H](CO)[C@@H](O)[C@H](O)[C@H]7O)[C@H]6O[C@@H]6O[C@H](CO)[C@@H](O)[C@H](O)[C@H]6O)C(C)(C)[C@@H]5CC[C@]43C)[C@@H]2C1` [araloside V], the “expression of keratin 10 gene” value with keratin 10 is “a level equal to or higher than that in the untreated group”. For the same compound, the “IL1B (production amount of protein)” value in the experiment with IL1B stood at 243 pg/mL. For the same compound, the “amount of ROS, ratio” value in experiment [1] came to 110. Besides, the “IL8 (production amount of protein)” value in the experiment with IL8 was 189 pg/mL. Moreover, the “MMP-1 activity” value in the experiment with MMP-1 is “to about the level of MMP-1 activity in the untreated (control) group”. The “expression of keratin 1 gene” value in the experiment on keratin 1 is “a level equal to or higher than that in the untreated group”.
For the compound `CC1(C)CC[C@]2(C(=O)O[C@@H]3O[C@H](CO)[C@@H](O)[C@H](O)[C@H]3O)CC[C@]3(C)C(=CC[C@@H]4[C@@]5(C)CC[C@H](O[C@@H]6O[C@H](CO)[C@@H](O)[C@H](O[C@@H]7O[C@H](CO)[C@@H](O)[C@H](O[C@@H]8O[C@H](CO)[C@@H](O)[C@H](O)[C@H]8O)[C@H]7O)[C@H]6O[C@@H]6O[C@H](CO)[C@@H](O)[C@H](O)[C@H]6O)C(C)(C)[C@@H]5CC[C@]43C)[C@@H]2C1` [araloside X], the “expression of keratin 10 gene” value in the experiment on keratin 10 is given as “a level equal to or higher than that in the untreated group”. Also, the “IL1B (production amount of protein)” value in the experiment on IL1B worked out at 252 pg/mL. The “amount of ROS, ratio” value in experiment [1] was 102. Moreover, in the experiment on IL8, the “IL8 (production amount of protein)” value was determined as 187 pg/mL. Moreover, the “MMP-1 activity” value in the experiment with MMP-1 is “to about the level of MMP-1 activity in the untreated (control) group”. The “expression of keratin 1 gene” value in the experiment on keratin 1 is listed as “a level equal to or higher than that in the untreated group”.
For `O=C1O[C@H]([C@@H](O)CO)C(O)=C1O` [ascorbic acid, reference compound], the “amount of ROS, ratio” value in experiment [1] was found to be 200.
α-bisabolol [reference compound]: the “IL1B (production amount of protein)” value in the experiment with IL1B turned out to be 214 pg/mL. The “IL8 (production amount of protein)” value in the experiment with IL8 turned out to be 180 pg/mL.
